We go through 16 compounds from ChEMBL document CHEMBL1139194, “Antitumor agents. 256. Conjugation of paclitaxel with other antitumor agents: evaluation of novel conjugates as cytotoxic agents” (Bioorg Med Chem Lett, 2007).

By inhibition is commonly meant the percentage by which the read-out fell short of the control. Low readings indicate a response near the control, high ones a response far below the control.

For one series, the system named is 1A9. Kind of series: Cytotoxicity against human 1A9 cells by sulforhodamine B assay. The note with it: read-out: ED50 (the source's name). In kind it is functional.
In the next series the test system is LNCaP. Description: Cytotoxicity against human LNCAP cells by sulforhodamine B assay. In kind it is functional. The conditions noted are these: read-out: ED50 (the source's name).
The next series deals with MCF7. Description: Cytotoxicity against human MCF7 cells by sulforhodamine B assay. The note with it: read-out: ED50 (the source's name). In kind it is functional. (In general: The SRB assay estimates cell density from bound dye.)
A short description of series [1]: Cytotoxicity against multi drug-resistant human KBVIN cells by sulforhodamine B assay. In kind it is functional. The conditions noted are these: read-out: ED50 (the source's name).
Another series relates to KB. Kind of series: Cytotoxicity against human KB cells by sulforhodamine B assay. The conditions noted are these: read-out: ED50 (the source's name). In kind it is functional.
Another series concerns DU-145. Description: Cytotoxicity against human DU145 cells by sulforhodamine B assay. The conditions noted are these: read-out: ED50 (the source's name). In kind it is functional.
The test system of another series is A549. Description: Cytotoxicity against human A549 cells by sulforhodamine B assay. In kind it is functional. The conditions noted are these: read-out: ED50 (the source's name).
Another series relates to PC-3. Description: Cytotoxicity against human PC3 cells by sulforhodamine B assay. The conditions noted are these: read-out: ED50 (the source's name). In kind it is functional.
A short description of series [2]: Cytotoxicity against human MRC5 cells by sulforhodamine B assay. In kind it is cell-based. The note with it: read-out: ED50 (the source's name).
For the next series, the system named is HUVEC. Kind of series: Antiangiogenesis activity against HUVEC cells. The conditions noted are these: Homo sapiens, read-out: ED50 (the source's name). In kind it is functional.
The nature of series [3]: Cytotoxicity against multi drug-resistant human KBVIN cells at 20 ug/mL by sulforhodamine B assay. In kind it is functional.

For the compound `COc1cc([C@@H]2c3cc4c(cc3[C@@H](O[C@H]3O[C@H]5CO[C@H](C)O[C@@H]5[C@@H](O)[C@@H]3O)[C@H]3COC(=O)[C@H]23)OCO4)cc(OC)c1O`, the EC50 in the series on 1A9 was 0.285 µM; with LNCaP, 0.53 µM; in the series on MCF7, 11.7 µM; in series [1], 14.4 µM; with KB it was 1.36 µM; in the series with DU-145 it was 1.6 µM. Besides, the EC50 worked out at 1.61 µM with A549 and 9.45 µM with PC-3. Further, in series [2], the CC50 was > 0.03 µM.

For `COc1cc([C@@H]2c3cc4c(cc3[C@@H](Nc3ccc(C(=O)NCCCC(=O)O[C@@H](C(=O)O[C@H]5C[C@@]6(O)[C@@H](OC(=O)c7ccccc7)[C@@H]7[C@]8(OC(C)=O)CO[C@@H]8C[C@H](O)[C@@]7(C)C(=O)[C@H](OC(C)=O)C(=C5C)C6(C)C)[C@@H](NC(=O)c5ccccc5)c5ccccc5)cc3)[C@H]3COC(=O)[C@H]23)OCO4)cc(OC)c1O`, the EC50 with 1A9 turned out to be 0.0081 µM; with LNCaP, 0.0102 µM; in the series with MCF7, 0.0221 µM; in series [1], 6.23 µM; in the series with KB, 0.0139 µM; with DU-145, 0.0325 µM. Also, the EC50 was found to be 0.0237 µM in the series with A549 and 0.0428 µM in the series on PC-3. The CC50 in series [2] is 6.17 µM.

Turning to `CC[C@@]1(O)C(=O)OCn2c1cc1c(c2=O)Cc2c-1nc1ccccc1c2CNCCC(=O)O[C@@H](C(=O)O[C@H]1C[C@@]2(O)[C@@H](OC(=O)c3ccccc3)[C@@H]3[C@]4(OC(C)=O)CO[C@@H]4C[C@H](O)[C@@]3(C)C(=O)[C@H](OC(C)=O)C(=C1C)C2(C)C)[C@@H](NC(=O)c1ccccc1)c1ccccc1`, the EC50 amounted to 0.0015 µM in the series with 1A9; 0.0012 µM with LNCaP; 0.0027 µM in the series on MCF7; 2.05 µM in series [1]; 0.0019 µM in the series with KB; 0.0023 µM in the series with DU-145. The results for the EC50 in the series with A549, with HUVEC and in the series on PC-3 were 0.0026 µM, 0.00209 µM and 0.0031 µM, respectively. The CC50 in series [2] amounted to 6.13 µM.

In the case of `COc1cc2c(c(OC)c1O)-c1ccc(OC)c(=O)cc1[C@@H](NC(C)=O)CC2` [2-DESMETHYLCOLCHICIN], the EC50 in the series with 1A9 was found to be 0.184 µM; with LNCaP it was 0.325 µM; with MCF7, 0.361 µM; in series [1] it was 29 µM; with KB it was 0.146 µM; with DU-145, 0.612 µM. The EC50 came out at 0.951 µM in the series on A549 and 0.475 µM in the series with PC-3.

As to `COc1ccc2c(c1)[C@@H](NC(=O)CCC(=O)O[C@@H](C(=O)O[C@H]1C[C@@]3(O)[C@@H](OC(=O)c4ccccc4)[C@@H]4[C@]5(OC(C)=O)CO[C@@H]5C[C@H](O)[C@@]4(C)C(=O)[C@H](OC(C)=O)C(=C1C)C3(C)C)[C@@H](NC(=O)c1ccccc1)c1ccccc1)CCc1cc(OC)c(OC)c(OC)c1-2`, the EC50 in the series on 1A9 stood at 0.014 µM; in the series with LNCaP, 0.0237 µM; in the series on MCF7, 0.0292 µM; with KB it was 0.0216 µM; in the series with DU-145 it was 0.0344 µM; with A549, 0.0285 µM. The EC50 was 0.0158 µM in the series on HUVEC and 0.0704 µM in the series on PC-3. For the same compound, the inhibition at 20 µg/mL in [3] is < 50%.

For `COc1cc2c(c(OC)c1O)-c1ccc(SC)c(=O)cc1[C@@H](NC(C)=O)CC2`, the EC50 with 1A9 is 0.0436 µM; with LNCaP, 0.0599 µM; in the series with MCF7, 0.0599 µM; in series [1], 7.43 µM; in the series with KB, 0.0479 µM; in the series with DU-145, 0.114 µM. Moreover, the EC50 with A549 was 0.0998 µM; with PC-3 it was 0.112 µM.

With `COc1cc([C@@H]2c3cc4c(cc3[C@@H](N)[C@H]3COC(=O)[C@H]23)OCO4)cc(OC)c1O`, the EC50 in the series on 1A9 is 0.739 µM; with LNCaP it was 0.68 µM; with MCF7, 0.686 µM; in [1] it was 2.05 µM; in the series on KB it was 0.111 µM; in the series on DU-145, 3.11 µM. In addition, the figures for the EC50 with A549 and in the series with PC-3 were 1.07 µM and 1.23 µM, respectively.

Take `CC[C@@]1(O)C(=O)OCn2c1cc1c(c2=O)Cc2c-1nc1ccccc1c2C=O`: the EC50 in the series with 1A9 is 0.0043 µM; in the series on LNCaP, 0.0043 µM; with MCF7, 0.0043 µM; in series [1], 0.025 µM; in the series with KB it was 0.0806 µM; in the series with DU-145 it was 0.0077 µM. Further, the results for the EC50 with A549 and with PC-3 were 0.0128 µM and 0.0184 µM, respectively.

Consider `COc1ccc2c(c1)[C@@H](/N=C/c1ccc(C(=O)O[C@@H](C(=O)O[C@H]3C[C@@]4(O)[C@@H](OC(=O)c5ccccc5)[C@@H]5[C@]6(OC(C)=O)CO[C@@H]6C[C@H](O)[C@@]5(C)C(=O)[C@H](OC(C)=O)C(=C3C)C4(C)C)[C@@H](NC(=O)c3ccccc3)c3ccccc3)cc1)CCc1cc(OC)c(OC)c(OC)c1-2`, for which the EC50 is 0.0023 µM with 1A9; 0.308 µM in series [1]; 0.0054 µM with KB; 0.0038 µM in the series with A549; 0.043 µM with HUVEC.

For the compound `CC[C@@]1(O)C(=O)OCc2c1cc1n(c2=O)Cc2cc3ccccc3nc2-1` [CAMPTOTHECIN], the EC50 in the series on 1A9 came to 0.0032 µM; in the series on LNCaP it was 0.002 µM; with MCF7, 0.0032 µM; in series [1] it was 0.015 µM; in the series with KB, 0.0209 µM; in the series on DU-145, 0.0109 µM. Further, the EC50 is 0.0069 µM in the series on A549 and 0.0167 µM in the series with PC-3.

On to `CC[C@@]1(O)C(=O)OCn2c1cc1c(c2=O)Cc2c-1nc1ccccc1c2/C=N/CCC(=O)O[C@@H](C(=O)O[C@H]1C[C@@]2(O)[C@@H](OC(=O)c3ccccc3)[C@@H]3[C@]4(OC(C)=O)CO[C@@H]4C[C@H](O)[C@@]3(C)C(=O)[C@H](OC(C)=O)C(=C1C)C2(C)C)[C@@H](NC(=O)c1ccccc1)c1ccccc1`, for which the EC50 in the series on 1A9 turned out to be 0.0016 µM; with LNCaP it was 0.003 µM; in the series with MCF7, 0.0267 µM; in [1], 0.0624 µM; in the series on KB, 0.0013 µM; with DU-145 it was 0.0037 µM. The figures for the EC50 in the series with A549, in the series on HUVEC and with PC-3 were 0.0026 µM, 0.00073 µM and 0.0148 µM, respectively. Further, in series [2], the CC50 is 0.178 µM.

As to `COc1ccc2c(c1)[C@@H](/N=C/c1ccc(C(=O)O[C@H]3C[C@H]4OC[C@@]4(OC(C)=O)[C@H]4[C@H](OC(=O)c5ccccc5)[C@]5(O)C[C@H](OC(=O)[C@H](O)[C@@H](NC(=O)c6ccccc6)c6ccccc6)C(C)=C([C@@H](OC(C)=O)C(=O)[C@]34C)C5(C)C)cc1)CCc1cc(OC)c(OC)c(OC)c1-2`, the EC50 with 1A9 turned out to be 0.0023 µM; in series [1], 0.308 µM; in the series with KB, 0.0023 µM; with A549, 0.0038 µM; in the series with HUVEC, 0.293 µM.

On to `COc1cc([C@@H]2c3cc4c(cc3[C@@H](NCc3ccc(C(=O)O[C@H]5C[C@H]6OC[C@@]6(OC(C)=O)[C@H]6[C@H](OC(=O)c7ccccc7)[C@]7(O)C[C@H](OC(=O)[C@H](O)[C@@H](NC(=O)c8ccccc8)c8ccccc8)C(C)=C([C@@H](OC(C)=O)C(=O)[C@]56C)C7(C)C)cc3)[C@H]3COC(=O)[C@H]23)OCO4)cc(OC)c1O`, for which the EC50 amounted to 0.0757 µM in the series on 1A9; 0.129 µM with LNCaP; 0.0682 µM in the series on MCF7; 5.2 µM in [1]; 0.0874 µM with KB; 0.168 µM in the series on DU-145. Also, the EC50 in the series on A549 turned out to be 0.123 µM; with PC-3 it was 0.192 µM.

As for `CC[C@@]1(O)C(=O)OCn2c1cc1c(c2=O)Cc2c-1nc1ccccc1c2/C=N/CCCC(=O)O[C@@H](C(=O)O[C@H]1C[C@@]2(O)[C@@H](OC(=O)c3ccccc3)[C@@H]3[C@]4(OC(C)=O)CO[C@@H]4C[C@H](O)[C@@]3(C)C(=O)[C@H](OC(C)=O)C(=C1C)C2(C)C)[C@@H](NC(=O)c1ccccc1)c1ccccc1`, the EC50 in the series with 1A9 was determined as 0.001 µM; with LNCaP it was 0.00034 µM; in the series on MCF7, 0.0341 µM; in [1], 0.0563 µM; in the series on KB, 0.0015 µM; in the series with DU-145, 0.0019 µM. In addition, the EC50 with A549 came out at 0.0019 µM; in the series on HUVEC it was 0.00098 µM; in the series with PC-3 it was 0.0194 µM. Moreover, the CC50 in series [2] stood at 0.244 µM.

Regarding `COc1cc([C@@H]2c3cc4c(cc3[C@@H](/N=C/c3ccc(C(=O)O[C@H]5C[C@H]6OC[C@@]6(OC(C)=O)[C@H]6[C@H](OC(=O)c7ccccc7)[C@]7(O)C[C@H](OC(=O)[C@H](O)[C@@H](NC(=O)c8ccccc8)c8ccccc8)C(C)=C([C@@H](OC(C)=O)C(=O)[C@]56C)C7(C)C)cc3)[C@H]3COC(=O)[C@H]23)OCO4)cc(OC)c1O`, the EC50 in the series with 1A9 is 0.0601 µM; in the series on LNCaP, 0.0901 µM; in the series with MCF7, 0.0486 µM; in series [1], 6.22 µM; in the series on KB, 0.0538 µM; in the series on DU-145, 0.139 µM. Besides, the EC50 was 0.111 µM in the series on A549, 0.23 µM in the series on HUVEC and 0.145 µM in the series on PC-3.

Take `CC(=O)O[C@H]1C(=O)[C@@]2(C)[C@H]([C@H](OC(=O)c3ccccc3)[C@]3(O)C[C@H](OC(=O)[C@H](O)[C@@H](NC(=O)c4ccccc4)c4ccccc4)C(C)=C1C3(C)C)[C@]1(OC(C)=O)CO[C@@H]1C[C@@H]2O` [PACLITAXEL]: the EC50 amounted to 0.001 µM in the series with 1A9; 0.0026 µM with LNCaP; 0.0011 µM with MCF7; 0.311 µM in series [1]; 0.0018 µM in the series with KB; 0.0013 µM in the series with DU-145. The values for the EC50 in the series on A549 and in the series on PC-3 were 0.0023 µM and 0.0555 µM, respectively.
